Test results as given in PMC3475717, “A Spiroligomer α-Helix Mimic That Binds HDM2, Penetrates Human Cells and Stabilizes HDM2 in Cell Culture” (PLoS ONE, 2012).
“Also recorded” adds a separate entry of the source.

Tests used:
[1] = test system: HepG2 cells; assay: cell penetration, fluorescence and confocal microscopy; active vs. passive transport; assay type: cell-based, human; conditions: HepG2, 37°C, 5 µM, 3.75 hours
Protocol: (§1) Cell Culture and Treatment. HepG2 (expressing wild-type p53) and Huh7 (expressing mutant p53) cell lines were purchased from the American Type Culture Collection (ATCC) and cultured as monolayers in Dulbecco’s modified Eagle’s medium (DMEM) (Invitrogen) supplemented with 100 mM nonessential amino acid solution, 100 mM sodium pyruvate, 100 U/mL penicillin, 100 μg/mL streptomycin, and 10% heat inactivated fetal bovine serum (FBS) (all from Hyclone).
(§2) Cells were maintained at 37° C and 5% CO2 and were treated with media that contained 0.5%
(§3) FBS. Nutlin-3 (Sigma) was dissolved in 0.01% DMSO (Sigma). This concentration of DMSO did not affect the cell phenotype. Both nutlin-3 and spiroligomers were added into the medium for final concentrations of 2 µM, 5 µM, 10 µM and 20 µM for 24 hours. For the western blot experiments detailed below, the time length for incubation with bis-peptide was 17 hours.
(§4) Fluorescence and Confocal Microscopy. Fluorescence and confocal microscopy were applied to live and fixed cells. Cells were grown on glass chambers and fixed with ice-cold 95:5 ethanol/acetic acid for 10 minutes at -20 °C. Sections were washed with PBS and mounted in Vectashield aqueous mounting medium with DAPI (Vector laboratories). Fluorescent specimens were analyzed using an ECLIPSE Ti microscope (Nikon), lenses with hardened […]
(1 picture or pasted object on this page, not shown here) […]
filters (Nikon), and a Nikon DS-Fi1 camera, which was operated by NIS Elements computer software (Nikon). Confocal microscopy was performed with a Leica SP-1 microscope, with illumination at 488 nm and spectral detection. […]
Mathematical model described8 and MxPro software (Stratagene) were used to process PCR data. End-point PCR reactions were assayed with PCR Master Mix (Promega). Samples were amplified in 34 cycles; each cycle consisted of 30 sec of denaturation at 95 °C, 30 sec of annealing at 60 °C, and 30 sec of elongation at 72 °C. After 34 cycles, samples were subjected to final elongation for 5 minutes at 72 °C. […]
fluorescence in the images.

[2] = test system: Huh7 cells; assay: cell penetration, fluorescence and confocal microscopy; assay type: cell-based, human; conditions: Huh7, 37°C
Protocol: Table S.7. Parameters used for the non-linear fit for the plot of the competition binding experiment.
as §1, §2, §3
as §4, with “Sections were washed with PBS and mounted in Vectashield aqueous mounting medium with DAPI (Vector laboratories).” left out
Western Blotting. […] Images were quantified using ImageJ software (NIH). […]

## O=C1OC2(c3ccc(O)cc3Oc3cc(O)ccc32)c2ccccc21 [fluorescein, reference compound]
[1]
  uptake of fluorescence (control): no visible uptake of fluorescence; also recorded: failed to produce any fluorescence
[2]
  uptake of fluorescence (control): no visible uptake of fluorescence
